Measurements: patent US5977133A, “Pyridone antibiotic with improved safety profile” (priority 1998, dated 1999)
Values after ≈ are worked out from the molar mass of the structure shown. “Also recorded” adds a separate entry of the source. Counter-ions that a name gives are not always drawn. Like-named read-outs stand apart in the source and are kept apart here.

Tests used:
[1] = system: P. aeruginosa (CiproR); assay: In vitro MIC, agar dilution; format: cell-based; conditions: for MIC50: read-out: MIC50; for MIC: read-out: MIC Range
[2] = system: S. pneumoniae (PenS); assay: In vitro MIC, agar dilution; format: cell-based; conditions: Streptococcus pneumoniae; for MIC: read-out: MIC Range; for MIC50: read-out: MIC50
[3] = system: P. aeruginosa (CiproS); assay: In vitro MIC, agar dilution; format: cell-based; conditions: Pseudomonas aeruginosa; for MIC50: read-out: MIC50; for MIC: read-out: MIC Range
[4] = system: Streptococcus pneumoniae 6303; assay: In vivo efficacy, mouse infection (ED50); conditions: for ED50: Streptococcus pneumoniae, 6303, in Mus musculus, 168 h
[5] = system: gram positive and gram negative infections; assay: In vivo efficacy in mice (overall statement); parameters: species or system female CF-1 outbred mice; conditions: for in vivo efficacy in words: gram positive and gram negative infections
[6] = system: streptococci; assay: In vitro MIC, agar dilution (summary in text); format: cell-based
[7] = system: enterobacteriaceae; assay: microbe, parasite or virus in culture; format: cell-based
[8] = system: Escherichia coli JUHL; assay: In vivo efficacy, mouse infection (ED50); conditions: for ED50: Escherichia coli, in Mus musculus, 168 h
[9] = system: bacteria; assay: In vitro antibacterial activity (overall statement); format: cell-based; conditions: overall statement
[10] = system: anaerobes; format: cell-based, B. fragilis, C. difficile, C. perfringens; conditions: words
[11] = system: staphylococci; assay: In vitro MIC, agar dilution (summary in text); format: cell-based
[12] = in vivo; conditions: mouse, ip
[13] = system: staphylococcus aureus NTCC 10649; assay: In vivo efficacy, mouse infection (ED50); conditions: for ED50: Staphylococcus aureus, NTCC10649, in Mus musculus, 168 h
[14] = system: enterococci; assay: In vitro MIC, agar dilution (summary in text); format: cell-based
[15] = system: ciprofloxacin resistant staphylococcal strains; assay: In vitro MIC, agar dilution (summary in text); format: cell-based; conditions: read-out: MIC90
[16] = Pseudomonas aeruginosa, P. aeruginosa (CiproR), 20 isolates
[17] = S. pneumoniae (PenS), 20 isolates
[18] = P. aeruginosa (CiproS), 24 isolates
[19] = P. aeruginosa (CiproS), 24 isolates, read-out: MIC90
[20] = Pseudomonas aeruginosa, P. aeruginosa (CiproR), 20 isolates, read-out: MIC90

SMILES: N[C@@H]1[C@H]2CN(c3nc4c(cc3F)c(=O)c(C(=O)O)cn4-c3ccc(F)cc3F)C[C@@H]12 [Trovafloxacin, trovafloxacin]
- MIC90 ([1]; Pseudomonas aeruginosa): > 128 µg/mL
- MIC50 [1, 16]: > 128 µg/mL
- MIC90 [2]: 0.5 µg/mL (≈ 1.2 µM)
- MIC [2]: 0.12 to 0.5 µg/mL (≈ 0.288 to 1.2 µM)
- MIC50 [2, 17]: 0.5 µg/mL (≈ 1.2 µM)
- MIC50 [3, 18]: 0.5 µg/mL (≈ 1.2 µM)
- MIC90 [3, 19]: 2 µg/mL (≈ 4.8 µM)
- MIC [3, 18]: 0.12 to 4 µg/mL (≈ 0.288 to 9.61 µM)

SMILES: NC1CCN(c2c(F)cc3c(=O)c(C(=O)O)cn(C4CC4)c3c2Cl)C1 (stereo not drawn) [Clinafloxacin, clinafloxacin]
- MIC ([1]; Pseudomonas aeruginosa): 2 to 32 µg/mL (≈ 5.47 to 87.5 µM)
- MIC50 [1, 16]: 4 µg/mL (≈ 10.9 µM)
- MIC90 [1, 20]: 8 µg/mL (≈ 21.9 µM)
- MIC90 [2]: 0.12 µg/mL (≈ 0.328 µM)
- MIC50 [2, 17]: 0.06 µg/mL (≈ 0.164 µM)
- MIC [2, 17]: 0.03 to 0.12 µg/mL (≈ 0.082 to 0.328 µM)
- MIC90 [3]: 0.5 µg/mL (≈ 1.37 µM)
- MIC50 [3, 18]: 0.12 µg/mL (≈ 0.328 µM)
- MIC [3, 18]: 0.015 to 0.5 µg/mL (≈ 0.041 to 1.37 µM)

SMILES: CN[C@@H]1CN(c2c(F)cn3c(=O)c(C(=O)O)cc(C4CC4)c3c2C)CC12CC2 [Example 1, 1-cyclopropyl-8-(7(S)-N-methylamino-5-azaspiro[2.4]heptyl)-7-fluoro-9-methyl-4-oxo-4H-guinolizine-3-carboxylic acid hydrochloride]
- efficacy relative to ciprofloxacin ([4]; S. pneumoniae, words): superior to ciprofloxacin
- ED50 ([4]; po): 20 mg/kg
- ED50 ([4]; sc): 12.5 mg/kg
- MIC50 [1, 16]: 8 µg/mL
- MIC90 [1, 20]: 16 µg/mL
- MIC [1, 16]: 4 to 32 µg/mL
- MIC90 ([1]; ciprofloxacin resistant P. aeruginosa strains): 16 (g/mL
- MIC50 [3, 18]: 0.5 µg/mL
- MIC90 [3, 19]: 2 µg/mL
- MIC [3, 18]: 0.12 to 4 µg/mL
- weight loss in words (mouse, in vivo): no weight loss was observed
- relative toxicity / safety in words (single intraperitoneal injection to mice, hydrochloride): significantly less toxic than Example 2 or Example 5; also recorded: less morbidity and mortality than equivalent doses of Example 2 and Example 5
- in vivo efficacy in words ([5]; hydrochloride): maintaining efficacy versus S. aureus. S. pneumoniae and E. coli
- in vivo efficacy in words ([5]; listed as example 1, hydrochloride): broad spectrum efficacy against both gram positive and gram negative infections
- oral efficacy in words ([5]; oral, all infections): Oral efficacy was also demonstrated against all infections
- MIC90 [6]: 0.06 µg/mL
- in vitro activity relative to reference drugs ([6]; words): superior to ciprofloxacin, sparfloxacin, and trovafloxacin
- MIC90 [7]: 0.015 to 0.25 µg/mL
- in vitro activity relative to reference drugs [7]: equivalent to ciprofloxacin and superior to trovafloxacin and sparfloxacin
- efficacy relative to ciprofloxacin ([8]; E. coli, words): comparable
- ED50 ([8]; po): 6.8 mg/kg
- ED50 ([8]; sc): 1.4 mg/kg
- antibacterial activity in words [9]: excellent, broad-spectrum antibacterial activity
- in vitro activity relative to reference drugs [10]: significantly more active than ciprofloxacin, trovafloxacin, and sparfloxacin
- MIC90 [11]: 0.03 µg/mL
- in vitro activity relative to reference drugs ([11]; words): superior to ciprofloxacin, sparfloxacin, and trovafloxacin
- LD50 at 504 h [12]: 232 mg/kg
- efficacy relative to ciprofloxacin ([13]; S. aureus, words): superior to ciprofloxacin
- ED50 ([13]; po): 5 mg/kg
- ED50 ([13]; sc): 1.5 mg/kg
- MIC90 [14]: 0.25 to 1 µg/mL
- in vitro activity relative to reference drugs ([14]; words): superior to ciprofloxacin, sparfloxacin, and trovafloxacin
- MIC90 [15]: 0.5 µg/mL

SMILES: C[C@@H]1CN(c2c(F)c(N)c3c(=O)c(C(=O)O)cn(C4CC4)c3c2F)C[C@H](C)N1 [Sparfloxacin, sparfloxacin]
- MIC90 ([1]; Pseudomonas aeruginosa): 128 µg/mL (≈ 326 µM)
- MIC50 [1, 16]: 64 µg/mL (≈ 163 µM)
- MIC90 [2]: 0.5 µg/mL (≈ 1.27 µM)
- MIC [2]: 0.12 to 0.5 µg/mL (≈ 0.306 to 1.27 µM)
- MIC50 [2, 17]: 0.25 µg/mL (≈ 0.637 µM)
- MIC50 [3, 18]: 0.5 µg/mL (≈ 1.27 µM)
- MIC90 [3, 19]: 1 µg/mL (≈ 2.55 µM)
- MIC [3, 18]: 0.06 to 8 µg/mL (≈ 0.153 to 20.4 µM)

SMILES: Cc1c(N2C[C@@H](N)C3(CC3)C2)c(F)cn2c(=O)c(C(=O)O)cc(C3CC3)c12 [Example 5, 1-cyclopropyl-8-(7(S)-amino-5-azaspiror2.41heptvl)-7-fluoro-9-methyl4-oxo-4H-quinolizine-3-carboxylic acid hydrochloride]
- ED50 ([4]; po): 4.2 mg/kg
- ED50 ([4]; sc): 0.9 mg/kg
- MIC50 [1, 16]: 8 µg/mL
- MIC90 [1, 20]: 16 µg/mL
- MIC [1, 16]: 4 to 16 µg/mL
- MIC90 [2]: 0.06 µg/mL
- MIC50 [2, 17]: 0.06 µg/mL
- MIC [2, 17]: 0.03 to 0.06 µg/mL
- MIC50 [3, 18]: 0.12 µg/mL
- MIC90 [3, 19]: 1 µg/mL
- MIC [3, 18]: 0.06 to 1 µg/mL
- body weight loss (mouse, in vivo, ip, 100 mg/kg): 18%
- ED50 ([8]; po): 5 mg/kg
- ED50 ([8]; sc): 0.6 mg/kg
- LD50 at 504 h [12]: 105 mg/kg
- ED50 ([13]; po): 2.3 mg/kg
- ED50 ([13]; sc): 0.9 mg/kg
